Read-outs that look alike come from different tables or passages of the source.
Key:
GSK-3α/β = GSK-3α/β kinase assay (GS-1 peptide); format: biochemical, porcine; conditions: 15 μM ATP, 30° C.
Experimental: After incubating at 30° C. for 30 (thirty) minutes, the 25 μl aliquots of the supernatant were treated as described above.

CK1δ/ε = CK1δ/ε kinase assay (CK1-specific peptide); format: biochemical, porcine; conditions: 15 μM ATP, 30° C.
Experimental: CK1δ/ε was purified from porcine brain by affinity chromatography on an immobilized axin fragment. It was assayed as described for CDK1 but using a CK1-specific peptide substrate.

DYRK1A = DYRK1A (Rattus norvegicus, UniProt Q63470); assay: DYRK1A kinase assay (myelin basic protein); format: biochemical; conditions: 15 μM ATP, 30° C., myelin basic protein; read-out: IC50 DYRK1A
SH-SY5Y cells = assay: Cell survival, MTS reduction, SH-SY5Y; format: cell-based; conditions: Homo sapiens
Experimental: The human neuroblastoma cell line SH-SY5Y was grown in a DMEM medium with L-glutamine originating from Invitrogen (Cergy Pontoise, France), antibiotics and 10% by volume of FCS originating from Invitrogen. […] These compounds were also tested at various concentrations with regard to their effects on SH-SY5Y and HEK293 cells. […] The IC50 values were calculated from the dose-response curves and are given in micromoles (mean±standard deviation of two independent measurements carried out in triplicate). […] The survival of the cells was estimated by the assaying of the degree of reduction of MTS induced by this exposure. […] The ICS© values were calculated from dose-response curves and are given in micromoles in table 3 below.

HCT116 (colon) = assay: Cell survival, MTS reduction, HCT116; format: cell-based; conditions: Homo sapiens, HCT-116; forty eight hours after addition; read-out: Survival of the cells (IC50, μM) (MTS reduction) HCT116 (colon)
Experimental: (§1) The viability of the cells was determined by measuring the reduction of 3-(4,5-dimethylthiazol-2-yl)-5-(3-carboxymethoxyphenyl)-2-(4-sulfophenyl)-2H/tetrazolium (MTS). The procedure was such as described in detail in Ribas J. et al., 2004, “Cell differentiation, caspase inhibition, and macromolecular synthesis blockage, but not BCL-2 or BCL-XL proteins, protect SH-SYS5 cells from apoptosis triggered by two CDK inhibitory drugs”, Exp. Cell Res., 2004, 195, 9-24.
(§2) The effects of meriolins 2 and 3 on the survival of various cell lines were also tested at various concentrations in order to determine their effects on eight different cell lines. The survival of the cells was expressed forty eight hours after the addition of each meriolin, using the MTS reduction test. The ICS© values were calculated from dose-response curves and are given in micromoles in table 3 below.

MDA-MB-231 (breast) = assay: Cell survival, MTS reduction, MDA-MB-231; format: cell-based; conditions: Homo sapiens, forty eight hours after addition, read-out: Survival of the cells (IC50, μM) (MTS reduction) MDA-MB-231 (breast)
Experimental: as §1, §2

PC3 (prostate) = assay: Cell survival, MTS reduction, PC3; format: cell-based; conditions: forty eight hours after addition; read-out: Survival of the cells (IC50, μM) (MTS reduction) PC3 (prostate)
Experimental: as §1, §2

Huh7 (hepatoma) = assay: Cell survival, MTS reduction, Huh7; format: cell-based; conditions: Homo sapiens, Huh-7; forty eight hours after addition; read-out: Survival of the cells (IC50, μM) (MTS reduction) Huh7 (hepatoma)
Experimental: as §1, §2

F1 (hepatoma) = assay: Cell survival, MTS reduction, F1; format: cell-based; conditions: forty eight hours after addition; read-out: Survival of the cells (IC50, μM) (MTS reduction) F1 (hepatoma)
Experimental: as §1, §2

[1] = tested on: HEK293 (embryonic kidney); assay: Cell survival, MTS reduction, HEK293; format: cell-based; conditions: Homo sapiens, forty eight hours after addition, read-out: Survival of the cells (IC50, μM) (MTS reduction) HEK293 (embryonic kidney)
Experimental: The HEK293 cells were grown in an MEM medium with Glutamax originating from Invitrogen, antibiotics and 10% by volume of FCS.
as §1
The effects of meriolins 2 and 3 on the survival of various cell lines were also tested at various concentrations in order to determine their effects on eight different cell lines. […] The ICS© values were calculated from dose-response curves and are given in micromoles in table 3 below.

[2] = tested on: Human foreskin fibroblasts; assay: Cell survival, MTS reduction, human foreskin fibroblasts; format: cell-based; conditions: Fibroblast, forty eight hours after addition, read-out: Survival of the cells (IC50, μM) (MTS reduction) Human foreskin fibroblasts
Experimental: as §1, §2

CDK1/cyclin B = CDK1/cyclin B kinase assay (histone H1, [γ-33P]-ATP); conditions: read-out: IC50 CDK1/cyclin B, 15 μM ATP, 30° C.
Experimental: Controls were prepared with appropriate dilutions of dimethyl sulfoxide.
After incubating at 30° C. for 30 minutes, 25 μl aliquots of the supernatant were spotted onto filters made of Whatman P81 phosphocellulose paper and, 20 seconds later, the filters were washed 5 times (for at least 5 (five) minutes each time) in a solution of 10 ml of phosphoric acid/liter of water. The wet filters were subjected to counting in the presence of an ACS scintillation fluid from Amersham.

A4573 cells xenograft = assay: In vivo antitumor activity, A4573 xenograft; design: species or system athymic male nude mice; conditions: 50 mg/kg intraperitoneal once daily, versus control
Experimental: Athymic male nude mice (aged from 5 to 6 weeks) were obtained from the National Cancer Institute. The mice were housed in the animal facility of the Division of Comparative Medicine of Georgetown University. All the studies on the animals were carried out under protocols approved by the Animal Care and Use Committee of Georgetown University. The mice were inoculated by subcutaneous injection into the right posterior flank with 4×10^6 A4573 cells in 100 μl of Matrigel basic membrane matrix (Becton Dickinson). Xenografts were grown to a mean tumor volume of 129±30 mm^3. The compounds tested were first dissolved in either absolute methanol or DMSL (1 volume). A carrier solution was produced using a diluent containing 10% Tween 80, 20% N—N-dimethylacetamide and 70% polyethylene glycol 400 (Fisher Scientific, Pittsburgh, Pa.). The mice were randomly divided into two groups (six animals per group) and the treatment was initiated. […] At these times, the tumors were removed, measured and prepared for TUNEL assays. The primary tumor volumes were calculated by the formula V=(1/2)a×b^2, where a is the longest tumor axis and b is the shortest tumor axis. The values are given in the form of mean±standard deviation values in quantitative experiments. […]

protein kinase hSGK1 = target: T1, protein kinase hSGK1 (Homo sapiens, UniProt O00141); conditions: from Angew. Chem. Int. Ed., 2005, 44, 6951-6956; cited from earlier work
T1 sequence (O00141 1-431): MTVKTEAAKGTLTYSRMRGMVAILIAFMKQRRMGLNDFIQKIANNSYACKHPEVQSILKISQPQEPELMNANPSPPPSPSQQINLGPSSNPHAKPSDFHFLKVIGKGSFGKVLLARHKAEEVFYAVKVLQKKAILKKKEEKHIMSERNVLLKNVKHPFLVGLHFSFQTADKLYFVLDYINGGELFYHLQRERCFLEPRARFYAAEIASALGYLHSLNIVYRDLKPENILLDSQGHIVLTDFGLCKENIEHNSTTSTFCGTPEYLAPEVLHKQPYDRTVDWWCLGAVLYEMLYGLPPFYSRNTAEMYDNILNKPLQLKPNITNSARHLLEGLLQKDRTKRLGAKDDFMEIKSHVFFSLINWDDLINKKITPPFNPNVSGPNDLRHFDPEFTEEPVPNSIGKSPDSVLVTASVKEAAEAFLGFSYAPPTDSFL

[3] = 8 h, Table 3, forty eight hours after addition, read-out: Survival of the cells (IC50, μM) (MTS reduction) SH-SY5Y (neuroblastoma)
[4] = Table 2, exposed for 24 hours, read-out: IC50 survival of SH-SY5Y cells (MTS reduction)

## Nc1nccc(-c2c[nH]c3nccc(O)c23)n1 [Meriolin 2, 3-[(2-amino)pyrimidin-4-yl]-4-hydroxy-1H-pyrrolo[2,3-b]pyridine]
GSK-3α/β
  IC50: 400 nM
CK1δ/ε
  IC50: 50 nM
DYRK1A
  IC50: 35 nM
SH-SY5Y cells; [3]
  IC50: 0.41 µM
SH-SY5Y cells; [4]
  IC50: 0.41 µM
HCT116 (colon)
  IC50: 0.08 µM
MDA-MB-231 (breast)
  IC50: 1.8 µM
PC3 (prostate)
  IC50: 17.3 µM
Huh7 (hepatoma)
  IC50: 1 µM
F1 (hepatoma)
  IC50: 2 µM
[1]
  IC50: 2.6 µM
[2]
  IC50: 20 µM
CDK1/cyclin B
  IC50: 57 nM

## COc1ccnc2[nH]cc(-c3ccnc(N)n3)c12 [Meriolin 3, 3-[(2-amino)pyrimidin-4-yl]-4-methoxy-1H-pyrrolo[2,3-b]pyridine]
GSK-3α/β
  IC50: 230 nM
CK1δ/ε
  IC50: 200 nM
DYRK1A
  IC50: 29 nM
SH-SY5Y cells; [3]
  IC50: 0.072 µM
SH-SY5Y cells; [4]
  IC50: 0.073 µM
HCT116 (colon)
  IC50: 0.94 µM
MDA-MB-231 (breast)
  IC50: 19 µM
PC3 (prostate)
  IC50: 95 µM
Huh7 (hepatoma)
  IC50: 0.12 µM
F1 (hepatoma)
  IC50: 0.26 µM
[1]
  IC50: 0.38 µM
[2]
  IC50: 8 µM
A4573 cells xenograft
  mean tumor volume over time (FIG. 3): only increases slightly over time
CDK1/cyclin B
  IC50: 170 nM

## Nc1nccc(-c2c[nH]c3ncccc23)n1 [Meriolin 1, 3-[(2-amino)pyrimidin-4-yl]-1H-pyrrolo[2,3-b]pyridine, reference compound]
DYRK1A
  IC50: 130 nM
SH-SY5Y cells; 24 h, read-out: IC50 survival of SH-SY5Y cells (MTS reduction)
  IC50: 0.67 µM
Protein kinase hSGK1
  IC50: 2400 nM
